Reference: US20260083693A1, “PHARMACEUTICAL COMPOSITION FOR THE ACUTE TREATMENT OF MIGRAINE AND OTHER FORMS OF HEADACHE” (priority 2024, published 2026)
Where two headings read alike, the source gives them in different places.

What was measured:
[1] = Pharmacokinetic (bioavailability) study of ibuprofen + ketoprofen nasal spray in healthy adult human subjects, plasma by LC-MS/MS
Method: Pharmacokinetic study to evaluate the bioavailability of the pharmaceutical composition prepared according to the present disclosure.
Blood samples were centrifuged at about 4000 rpm for 10 minutes at 4±2° C. to separate the plasma. The resulting plasma was equally transferred into 2. These aliquots were stored frozen, upright in a freezer within 90 minutes of blood collection time of each sample at a temperature of −70° C. […] until they were analyzed.
Sample values below the LLOQ were reported as Below Quantification Limit (BQL). Pharmacokinetic parameters were calculated using Phoenix® WinNonlin® software (version: 8.3). The following parameters were calculated:
Primary pharmacokinetic parameters: Cmax, AUC0-t and AUC0-∞ Secondary pharmacokinetic parameters: tmax, t1/2, Kel and AUC_% Extrap_obs.

[2] = cited from earlier work
[3] = topical sustained release composition, at three hours; cited from earlier work

SMILES | AUC(0-inf) ([1]; human, in vivo, inhaled or intranasal, AUC0-∞ range over the dose range of the composition, intranasal, dosage unit 0.4-8 mg ibuprofen and 0.025-0.48 mg ketoprofen) | Cmax ([1]; human, in vivo, inhaled or intranasal, plasma Cmax range over the dose range of the composition, intranasal, dosage unit 0.4-8 mg ibuprofen and 0.025-0.48 mg ketoprofen) | Cmax ([1]; human, in vivo, inhaled or intranasal, plasma Cmax, intranasal, 8 sprays (100 μL each), printed as equivalent to 1.816 mg ibuprofen and 0.24 mg ketoprofen) | Cmax lower than expected Cmax of minimum approved oral dose ([1]; intranasal 8 sprays vs oral 200 mg ibuprofen / 12.5 mg ketoprofen) | expected Cmax for the minimum approved oral dose ([2]; oral ibuprofen 200 mg, as reported in the literature) | maximum plasma concentration ([2]; oral ibuprofen, 400 mg) | time of maximum plasma concentration ([2]; oral ibuprofen, 400 mg) | peak plasma concentration ([2]; oral ibuprofen, dose 100 mg) | time of peak plasma concentration ([2]; oral ibuprofen, dose 100 mg) | peak plasma concentration of ketoprofen [3] | peak plasma concentration ([2]; oral ketoprofen, dose 50 mg) | time of peak plasma concentration ([2]; oral ketoprofen, dose 50 mg)
CC(C)Cc1ccc(C(C)C(=O)O)cc1 (stereo not drawn) [ibuprofen] | 133 to 1920 ng·h/mL | 41.4 to 828 ng/mL | 165 ng/mL | approximately 100 times | approximately 17.3 μg/mL | 32.8 µg/mL | 90 min | 9.5 µg/mL | 116 min |  |  | 
CC(C(=O)O)c1cccc(C(=O)c2ccccc2)c1 (stereo not drawn) [ketoprofen] |  |  |  |  |  |  |  |  |  | at most 450 ng/ml | 2.6 µg/mL | 134 min
